Consider ten compounds from patent US6214859A, “Ethylamine derivatives” (Fujimoto Brothers Co., Ltd., priority 1997, dated 2001).

SMILES strings stand for the structures. Where a name gives a salt, the structure may show the parent alone.

Data set [1] in a line: Toxicity screening using primary cultured hepatocyte (LDH release). The format is cell-based, rat. To be noted: rat, primary hepatocytes, 24 hr, control 0.5% saline or 0.5% DMSO, read-out: Percent control of LDH release. On the procedure:
The hepatocytes was prepared from rat liver by collagenase perfusion method and suspension containing 5×10^5 cells/ml were prepared. After cultivation for 24 hr, the suspension was exchanged to the William's Medium E (GIBCO BRL) containing 10 or 100 μM of the compounds of this invention. After cultivation for 24 hr, the activity of lactate dehydrogenase (LDH) released in the medium was measured.
Background: LDH in the medium is a marker of cell lysis.

Data set [2] has as its system rats reduced learning ability by tetrabenazine. Briefly: Conditioned avoidance task in the shuttle box (tetrabenazine-treated rats). To be noted: tetrabenazine 1 mg/kg s.c., significance and direction. Type of data set: in vivo, rat. On the procedure: The method described in Life Sci., 58, 817-827 (1996) was used. The effects on conditioned avoidance reflex (CARs) was analyzed in the shuttle box using male and female rats (weighing 200-220 g) whose leaning abilities were reduced by treatment of tetrabenazine. The instrument was constructed, according to the device described in Psychopharmacologia 10, 1-5 (1966) by the Research Institute for Electrical Industry (Budapest, Hungary). The male and female rats (weighing 200-220 g) were trained to cross the berrier under the influence of a conditioned stimulus (CS) (light flash and buzzer sounds). […] And the performance which was not related to this condition was noted as an intersignal reaction (IR). The rats were trained with 100 trials per day for 5 days. One trial consisted of 15 sec intertrial interval. The saline solution of tetrabenazine was administered at a dose of 1 mg/kg subcutaneously before one hour prior to the test and then the solution of the compounds of this invention were administered at the doses of 1, 2, 2.5 and 5 mg/kg subcutaneously with the simultaneous administration of tetrabenazine. The nmbers of CARs, EFs and IRs were automatically counted and evaluated by multi-way analysis of variance (ANOVA).

On to `CCCC(Cc1ccc2ccccc2c1)NCC(C)(C)C` (stereo not drawn) [Compound No. 14], for which, in data set [1], the activity at 24 h, 10 µM stood at 108 ± 4.18% and the activity at 24 h, 100 µM came out at 131 ± 7.08%.

As to `CCCNC(CCC)Cc1ccc2cc(OC)ccc2c1` (stereo not drawn) [Compound No. 15], the “Condition Avoidance Reflex (CARs)” value in data set [2] (5 mg/kg s.c.) is “* .Arrow-up bold”.

Take `CCCNC(CCC)Cc1cc2ccccc2[nH]1` (stereo not drawn) [Compound No. 19, 1-(Indol-2-yl)-2-propylaminopentane Hydrochloride]: in data set [1], the activity at 24 h, 10 µM came out at 82.4 ± 8.34% and the activity at 24 h, 100 µM stood at 180 ± 5.54%.

On to `CCCCNC(CCC)Cc1ccc2c(c1)OCO2.Cl` (stereo not drawn) [Compound No. 29, 1-(1,3-Benzodioxol-5-yl)-2-butylaminopentane Hydrochloride], for which, in data set [2] (2.5 mg/kg s.c.), the “Condition Avoidance Reflex (CARs)” value is given as “* .Arrow-up bold”. In data set [2] (5 mg/kg s.c.), the “Condition Avoidance Reflex (CARs)” value is given as “*** .Arrow-up bold” and the “Intersignal Reactions (IRs)” value is listed as “*** .dwnarw”. Also, in data set [1], the activity at 24 h, 10 µM came to 103 ± 6.02% and the activity at 24 h, 100 µM worked out at 101 ± 2.94%.

Regarding `CCCC(Cc1ccc2c(c1)OCO2)NC(C)CC` (stereo not drawn) [Compound No. 30], in data set [2] (5 mg/kg s.c.), the “Condition Avoidance Reflex (CARs)” value was “**** .Arrow-up bold” and the “Intersignal Reactions (IRs)” value is “* .dwnarw”. Further, in data set [1], the activity at 24 h, 10 µM amounted to 99.5 ± 5.44% and the activity at 24 h, 100 µM was 138 ± 4.57%.

In the case of `CCCC(Cc1ccc2c(c1)OCO2)NC(CC)CC` (stereo not drawn) [Compound No. 31], in data set [1], the activity at 24 h, 10 µM turned out to be 102.5 ± 0.84% and the activity at 24 h, 100 µM is 153 ± 4.35%.

For the compound `CCCC(Cc1ccc2c(c1)OCO2)Nc1ccc(C)cc1.Cl` (stereo not drawn) [Compound No. 33, 1-(1,3-Benzodioxol-5-yl)-2-p-toluidinopentane Hydrochloride], in data set [2] (5 mg/kg s.c.), the “Condition Avoidance Reflex (CARs)” value is given as “* .Arrow-up bold” and the “Intersignal Reactions (IRs)” value is “* .dwnarw”. In data set [1], the activity at 24 h, 10 µM amounted to 94 ± 4.16% and the activity at 24 h, 100 µM stood at 152 ± 5.71%.

In the case of `CCCNC(CCC)Cc1ccc2c(c1)OCCO2` (stereo not drawn) [Compound No. 35, 1-(1,4-Benzodioxan-6-yl)-2-propylaminopentane Hydrochloride], in data set [1], the activity at 24 h, 10 µM is 103 ± 10.6% and the activity at 24 h, 100 µM worked out at 147 ± 5.07%.

For the compound `CCCNC(CCC)Cc1ccc2c(c1)CCO2` (stereo not drawn) [Compound No. 36, 1-(2,3-Dihydrobenzofuran-5-yl)-2-propylaminopentane Hydrochloride], in data set [1], the activity at 24 h, 10 µM turned out to be 101 ± 2.24% and the activity at 24 h, 100 µM is 111 ± 6.58%.

Consider `CCCNC(CCC)Cc1ccc2c(c1)CCC2.Cl` (stereo not drawn) [Compound No. 37, 1-(Indan-5-yl)-2-propylaminopentane Hydrochloride], for which, in data set [2] (5 mg/kg s.c.), the “Condition Avoidance Reflex (CARs)” value is listed as “* .Arrow-up bold”. Besides, in data set [1], the activity at 24 h, 10 µM turned out to be 83.8 ± 5.65% and the activity at 24 h, 100 µM was 193 ± 8.51%.
